Experiments:
D(3) dopamine receptor = D(3) dopamine receptor (Homo sapiens, UniProt P35462)
[1] = target: T1, Prostaglandin G/H synthase 1 (Homo sapiens, UniProt P23219); format: functional
Thromboxane A2 receptor = target: T2, Thromboxane A2 receptor (Homo sapiens, UniProt P21731); format: functional, cell-based
T2 sequence (P21731 whole entry): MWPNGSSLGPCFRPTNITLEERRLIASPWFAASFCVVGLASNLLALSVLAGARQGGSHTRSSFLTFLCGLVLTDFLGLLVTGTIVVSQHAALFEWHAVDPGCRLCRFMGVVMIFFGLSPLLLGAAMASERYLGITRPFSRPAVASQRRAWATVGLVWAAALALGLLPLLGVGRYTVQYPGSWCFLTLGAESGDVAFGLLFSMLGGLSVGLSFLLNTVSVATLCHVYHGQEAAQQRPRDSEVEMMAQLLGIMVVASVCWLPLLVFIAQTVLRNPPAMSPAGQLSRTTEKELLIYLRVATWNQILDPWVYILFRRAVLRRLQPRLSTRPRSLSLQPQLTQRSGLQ

[2] = target: T1, Prostaglandin G/H synthase 1; format: functional; remark: listed apart in the source
Acetylcholinesterase = Acetylcholinesterase (Homo sapiens, UniProt P22303); format: functional
Histamine H3 receptor = Histamine H3 receptor (Homo sapiens, UniProt Q9Y5N1)
[3] = target: 3',5'-cyclic-AMP phosphodiesterase 4A (Homo sapiens, UniProt P27815); format: functional
[4] = target: T3, Muscarinic acetylcholine receptor M2 (Homo sapiens, UniProt P08172)
T3 sequence (P08172 whole entry): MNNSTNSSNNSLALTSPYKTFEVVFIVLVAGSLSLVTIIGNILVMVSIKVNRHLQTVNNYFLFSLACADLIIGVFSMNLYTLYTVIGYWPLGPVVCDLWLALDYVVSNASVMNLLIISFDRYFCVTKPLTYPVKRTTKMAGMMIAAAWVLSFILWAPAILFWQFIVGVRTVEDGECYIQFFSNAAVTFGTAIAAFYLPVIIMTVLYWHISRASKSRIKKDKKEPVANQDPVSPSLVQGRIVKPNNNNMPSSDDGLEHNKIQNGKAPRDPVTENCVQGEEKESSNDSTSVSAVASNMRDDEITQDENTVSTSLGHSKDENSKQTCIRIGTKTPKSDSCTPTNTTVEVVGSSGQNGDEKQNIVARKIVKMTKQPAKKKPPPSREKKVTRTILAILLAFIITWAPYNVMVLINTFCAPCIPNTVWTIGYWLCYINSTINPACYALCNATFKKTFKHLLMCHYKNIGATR

Mu-type opioid receptor = Mu-type opioid receptor (Homo sapiens, UniProt P35372)
Bile salt export pump = Bile salt export pump (Homo sapiens, UniProt O95342); format: functional
[5] = target: T4, Amine oxidase [flavin-containing] A (Homo sapiens, UniProt P21397); format: functional
T4 sequence (P21397 whole entry): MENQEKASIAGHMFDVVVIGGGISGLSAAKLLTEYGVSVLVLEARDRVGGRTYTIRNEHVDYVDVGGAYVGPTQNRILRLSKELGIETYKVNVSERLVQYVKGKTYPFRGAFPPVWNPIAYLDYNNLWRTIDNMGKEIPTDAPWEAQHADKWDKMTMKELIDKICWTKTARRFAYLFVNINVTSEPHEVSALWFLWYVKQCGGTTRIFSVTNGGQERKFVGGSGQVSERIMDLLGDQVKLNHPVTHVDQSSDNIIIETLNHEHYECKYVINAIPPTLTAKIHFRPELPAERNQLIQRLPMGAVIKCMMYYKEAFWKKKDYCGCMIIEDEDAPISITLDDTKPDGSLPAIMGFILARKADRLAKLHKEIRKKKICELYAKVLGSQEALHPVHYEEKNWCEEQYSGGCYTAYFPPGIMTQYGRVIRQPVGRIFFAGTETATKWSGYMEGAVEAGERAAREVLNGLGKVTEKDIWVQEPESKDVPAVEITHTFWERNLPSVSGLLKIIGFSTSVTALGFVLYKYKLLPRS

[6] = target: Voltage-gated inwardly rectifying potassium channel KCNH2 (Homo sapiens, UniProt Q12809); format: functional
Progesterone receptor = target: T5, Progesterone receptor (Homo sapiens, UniProt P06401)
T5 sequence (P06401 whole entry): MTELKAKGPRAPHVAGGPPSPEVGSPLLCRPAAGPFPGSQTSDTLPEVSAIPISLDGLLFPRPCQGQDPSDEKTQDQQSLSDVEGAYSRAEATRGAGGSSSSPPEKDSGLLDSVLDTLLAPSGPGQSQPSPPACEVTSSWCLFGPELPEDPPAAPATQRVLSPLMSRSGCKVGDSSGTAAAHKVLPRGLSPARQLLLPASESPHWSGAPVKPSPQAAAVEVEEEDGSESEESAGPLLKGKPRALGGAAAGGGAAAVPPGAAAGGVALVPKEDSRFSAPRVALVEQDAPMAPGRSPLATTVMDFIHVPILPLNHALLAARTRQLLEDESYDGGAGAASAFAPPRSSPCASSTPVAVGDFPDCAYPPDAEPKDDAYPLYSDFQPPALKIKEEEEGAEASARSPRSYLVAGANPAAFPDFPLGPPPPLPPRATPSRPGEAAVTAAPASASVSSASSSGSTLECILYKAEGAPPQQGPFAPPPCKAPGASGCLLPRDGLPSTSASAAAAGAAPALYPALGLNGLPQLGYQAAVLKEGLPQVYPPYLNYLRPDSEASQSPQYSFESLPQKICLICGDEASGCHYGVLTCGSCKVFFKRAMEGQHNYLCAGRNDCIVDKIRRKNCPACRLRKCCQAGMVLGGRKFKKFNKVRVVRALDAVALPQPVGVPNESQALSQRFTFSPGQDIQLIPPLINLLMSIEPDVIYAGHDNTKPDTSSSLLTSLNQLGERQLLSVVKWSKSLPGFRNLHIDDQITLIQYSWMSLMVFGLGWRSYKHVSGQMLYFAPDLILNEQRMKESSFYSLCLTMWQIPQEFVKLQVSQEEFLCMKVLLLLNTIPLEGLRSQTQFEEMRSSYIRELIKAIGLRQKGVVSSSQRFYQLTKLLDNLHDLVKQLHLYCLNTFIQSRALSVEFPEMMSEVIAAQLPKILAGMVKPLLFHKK

Prothrombin = Prothrombin (Homo sapiens, UniProt P00734); format: functional
[7] = target: cGMP-inhibited 3',5'-cyclic phosphodiesterase 3A (Homo sapiens, UniProt Q14432); format: functional
D(1A) dopamine receptor = D(1A) dopamine receptor (Homo sapiens, UniProt P21728)
Further: assay procedure not described here.

Chain of D(1A) dopamine receptor (P21728 whole entry): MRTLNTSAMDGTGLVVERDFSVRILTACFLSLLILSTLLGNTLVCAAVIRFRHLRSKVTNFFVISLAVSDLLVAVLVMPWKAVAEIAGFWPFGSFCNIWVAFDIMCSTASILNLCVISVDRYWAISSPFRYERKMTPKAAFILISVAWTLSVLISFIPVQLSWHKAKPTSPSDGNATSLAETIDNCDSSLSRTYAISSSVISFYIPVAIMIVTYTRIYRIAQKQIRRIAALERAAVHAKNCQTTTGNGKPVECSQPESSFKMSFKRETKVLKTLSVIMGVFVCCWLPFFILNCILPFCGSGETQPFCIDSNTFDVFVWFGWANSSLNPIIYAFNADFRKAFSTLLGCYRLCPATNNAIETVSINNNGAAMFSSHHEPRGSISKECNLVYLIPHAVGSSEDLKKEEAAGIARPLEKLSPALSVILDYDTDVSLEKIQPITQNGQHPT
Chain of cGMP-inhibited 3',5'-cyclic phosphodiesterase 3A (Q14432 whole entry): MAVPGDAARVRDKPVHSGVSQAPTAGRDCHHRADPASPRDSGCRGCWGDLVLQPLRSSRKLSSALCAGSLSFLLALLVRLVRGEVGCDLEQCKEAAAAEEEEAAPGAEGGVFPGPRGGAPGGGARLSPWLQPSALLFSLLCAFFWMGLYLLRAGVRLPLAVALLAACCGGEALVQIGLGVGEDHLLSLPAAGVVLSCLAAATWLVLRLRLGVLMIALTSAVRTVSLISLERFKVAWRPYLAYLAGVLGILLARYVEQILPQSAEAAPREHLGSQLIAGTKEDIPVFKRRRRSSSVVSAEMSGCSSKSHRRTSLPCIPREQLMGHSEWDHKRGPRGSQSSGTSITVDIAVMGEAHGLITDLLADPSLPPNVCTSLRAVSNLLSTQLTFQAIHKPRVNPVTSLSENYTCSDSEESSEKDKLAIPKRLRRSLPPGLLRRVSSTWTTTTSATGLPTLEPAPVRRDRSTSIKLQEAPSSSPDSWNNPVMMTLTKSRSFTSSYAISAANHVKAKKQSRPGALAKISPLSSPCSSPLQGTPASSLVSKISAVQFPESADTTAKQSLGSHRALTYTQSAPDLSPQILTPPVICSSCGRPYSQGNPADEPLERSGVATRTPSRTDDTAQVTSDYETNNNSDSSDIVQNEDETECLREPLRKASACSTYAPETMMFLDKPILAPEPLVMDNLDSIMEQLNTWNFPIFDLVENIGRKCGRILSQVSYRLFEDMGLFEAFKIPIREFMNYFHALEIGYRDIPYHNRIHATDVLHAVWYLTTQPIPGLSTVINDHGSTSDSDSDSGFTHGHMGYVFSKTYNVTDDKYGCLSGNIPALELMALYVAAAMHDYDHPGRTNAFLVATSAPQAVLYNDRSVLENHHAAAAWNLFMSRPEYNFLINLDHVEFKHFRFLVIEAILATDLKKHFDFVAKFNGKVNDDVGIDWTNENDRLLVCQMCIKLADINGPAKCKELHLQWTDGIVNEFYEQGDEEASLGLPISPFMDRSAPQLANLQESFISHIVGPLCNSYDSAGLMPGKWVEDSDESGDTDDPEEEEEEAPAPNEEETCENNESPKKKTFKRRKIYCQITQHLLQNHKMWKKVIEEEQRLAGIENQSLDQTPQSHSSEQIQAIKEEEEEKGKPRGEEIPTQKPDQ
Chain of Acetylcholinesterase (P22303 whole entry): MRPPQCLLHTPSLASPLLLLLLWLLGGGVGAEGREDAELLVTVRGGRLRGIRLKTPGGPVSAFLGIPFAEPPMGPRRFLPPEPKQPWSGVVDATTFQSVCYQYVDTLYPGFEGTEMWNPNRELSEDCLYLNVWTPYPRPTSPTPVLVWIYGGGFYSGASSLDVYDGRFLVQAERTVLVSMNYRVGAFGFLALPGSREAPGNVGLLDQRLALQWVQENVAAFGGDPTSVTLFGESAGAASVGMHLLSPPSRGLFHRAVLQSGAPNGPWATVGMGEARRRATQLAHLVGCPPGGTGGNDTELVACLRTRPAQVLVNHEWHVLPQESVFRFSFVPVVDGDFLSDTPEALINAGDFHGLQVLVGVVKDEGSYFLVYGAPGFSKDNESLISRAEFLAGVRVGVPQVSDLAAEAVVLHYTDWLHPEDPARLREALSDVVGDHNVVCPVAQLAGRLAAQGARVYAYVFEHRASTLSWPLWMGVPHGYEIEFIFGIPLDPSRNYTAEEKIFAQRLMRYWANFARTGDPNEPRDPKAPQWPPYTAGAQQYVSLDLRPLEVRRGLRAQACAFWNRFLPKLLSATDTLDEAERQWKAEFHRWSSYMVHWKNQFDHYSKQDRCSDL
Chain of 3',5'-cyclic-AMP phosphodiesterase 4A (P27815 whole entry): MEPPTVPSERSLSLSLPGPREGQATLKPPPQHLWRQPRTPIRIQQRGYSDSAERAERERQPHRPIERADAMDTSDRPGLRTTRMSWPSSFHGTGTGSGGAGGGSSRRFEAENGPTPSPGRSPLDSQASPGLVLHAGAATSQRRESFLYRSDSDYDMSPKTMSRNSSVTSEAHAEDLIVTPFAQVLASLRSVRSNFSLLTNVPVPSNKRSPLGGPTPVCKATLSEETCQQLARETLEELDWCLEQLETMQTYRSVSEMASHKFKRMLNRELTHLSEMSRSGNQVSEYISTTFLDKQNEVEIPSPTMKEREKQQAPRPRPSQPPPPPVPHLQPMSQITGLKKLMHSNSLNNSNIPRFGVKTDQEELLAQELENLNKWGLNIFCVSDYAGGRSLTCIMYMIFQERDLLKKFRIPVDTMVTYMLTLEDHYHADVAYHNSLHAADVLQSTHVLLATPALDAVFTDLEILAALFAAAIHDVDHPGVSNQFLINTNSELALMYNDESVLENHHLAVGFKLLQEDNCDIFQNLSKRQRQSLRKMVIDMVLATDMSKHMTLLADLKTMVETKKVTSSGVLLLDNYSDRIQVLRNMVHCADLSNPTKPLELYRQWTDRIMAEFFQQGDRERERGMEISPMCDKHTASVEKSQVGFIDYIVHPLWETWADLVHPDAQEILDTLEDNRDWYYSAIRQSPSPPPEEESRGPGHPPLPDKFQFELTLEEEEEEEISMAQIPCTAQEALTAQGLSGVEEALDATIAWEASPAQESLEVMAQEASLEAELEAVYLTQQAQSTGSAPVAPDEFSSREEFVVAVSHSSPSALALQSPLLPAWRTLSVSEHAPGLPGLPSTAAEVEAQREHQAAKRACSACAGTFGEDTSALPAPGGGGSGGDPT
T1 sequence (P23219 whole entry): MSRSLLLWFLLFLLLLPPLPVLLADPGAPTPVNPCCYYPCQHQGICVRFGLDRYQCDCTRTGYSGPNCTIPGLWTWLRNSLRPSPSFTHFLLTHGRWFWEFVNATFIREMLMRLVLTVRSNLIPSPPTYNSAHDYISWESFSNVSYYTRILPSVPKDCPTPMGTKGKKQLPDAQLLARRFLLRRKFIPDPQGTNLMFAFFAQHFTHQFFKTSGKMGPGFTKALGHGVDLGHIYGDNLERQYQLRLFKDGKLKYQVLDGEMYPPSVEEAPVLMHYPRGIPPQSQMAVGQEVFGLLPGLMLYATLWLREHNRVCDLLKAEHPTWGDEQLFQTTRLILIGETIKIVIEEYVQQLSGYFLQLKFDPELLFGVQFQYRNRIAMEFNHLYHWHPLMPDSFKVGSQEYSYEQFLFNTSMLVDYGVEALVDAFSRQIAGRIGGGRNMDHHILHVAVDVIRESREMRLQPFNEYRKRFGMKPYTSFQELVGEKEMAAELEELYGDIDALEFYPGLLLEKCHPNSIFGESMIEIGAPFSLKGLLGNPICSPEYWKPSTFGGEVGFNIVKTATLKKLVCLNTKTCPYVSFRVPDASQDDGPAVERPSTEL
Chain of Histamine H3 receptor (Q9Y5N1 whole entry): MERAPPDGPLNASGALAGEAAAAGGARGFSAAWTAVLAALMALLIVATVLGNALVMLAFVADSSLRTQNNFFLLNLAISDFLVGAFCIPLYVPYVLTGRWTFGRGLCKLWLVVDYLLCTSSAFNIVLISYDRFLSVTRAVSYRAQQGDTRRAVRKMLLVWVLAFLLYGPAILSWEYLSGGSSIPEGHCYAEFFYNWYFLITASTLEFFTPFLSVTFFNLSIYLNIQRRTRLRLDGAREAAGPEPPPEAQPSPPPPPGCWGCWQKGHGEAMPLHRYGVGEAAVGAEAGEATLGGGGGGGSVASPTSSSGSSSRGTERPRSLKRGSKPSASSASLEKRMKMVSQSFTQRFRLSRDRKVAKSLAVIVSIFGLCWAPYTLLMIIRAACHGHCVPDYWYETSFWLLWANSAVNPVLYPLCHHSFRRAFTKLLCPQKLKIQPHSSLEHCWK
Chain of D(3) dopamine receptor (P35462 whole entry): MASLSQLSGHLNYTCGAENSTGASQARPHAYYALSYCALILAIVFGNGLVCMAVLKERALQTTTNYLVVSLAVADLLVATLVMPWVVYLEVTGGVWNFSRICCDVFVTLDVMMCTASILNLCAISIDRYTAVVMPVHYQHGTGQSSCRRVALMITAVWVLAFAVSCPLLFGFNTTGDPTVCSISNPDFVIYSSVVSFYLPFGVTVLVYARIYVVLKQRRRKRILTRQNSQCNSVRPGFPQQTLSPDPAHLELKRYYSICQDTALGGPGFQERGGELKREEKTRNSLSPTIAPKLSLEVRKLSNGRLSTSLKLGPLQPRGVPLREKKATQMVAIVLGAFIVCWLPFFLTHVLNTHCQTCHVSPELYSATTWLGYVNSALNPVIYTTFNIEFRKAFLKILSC
Chain of Mu-type opioid receptor (P35372 whole entry): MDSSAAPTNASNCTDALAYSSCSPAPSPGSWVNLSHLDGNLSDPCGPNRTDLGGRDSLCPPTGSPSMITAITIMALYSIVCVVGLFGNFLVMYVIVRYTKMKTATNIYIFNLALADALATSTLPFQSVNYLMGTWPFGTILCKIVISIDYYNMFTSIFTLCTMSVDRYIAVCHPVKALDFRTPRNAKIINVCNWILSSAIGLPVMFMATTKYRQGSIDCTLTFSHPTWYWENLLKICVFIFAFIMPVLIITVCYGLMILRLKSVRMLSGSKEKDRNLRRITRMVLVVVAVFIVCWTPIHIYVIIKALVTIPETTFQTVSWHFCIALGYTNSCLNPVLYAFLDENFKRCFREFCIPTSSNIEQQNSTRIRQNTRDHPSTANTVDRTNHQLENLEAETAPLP

SMILES | AC50 (D(3) dopamine receptor) [µM] | AC50 [1] [µM] | AC50 (Thromboxane A2 receptor) [µM] | AC50 [2] [µM] | AC50 (Acetylcholinesterase) [µM] | AC50 (Histamine H3 receptor) [µM] | AC50 [3] [µM] | AC50 [4] [µM] | AC50 (Mu-type opioid receptor) [µM] | AC50 (Bile salt export pump) [µM] | AC50 [5] [µM] | AC50 [6] [µM] | AC50 (Progesterone receptor) [µM] | AC50 (Prothrombin) [µM] | AC50 [7] [µM] | AC50 (D(1A) dopamine receptor) [µM]
Cc1onc(-c2ccccc2)c1C(=O)N[C@@H]1C(=O)N2[C@@H]1SC(C)(C)[C@@H]2C(=O)O [OXACILLIN] | > 30 | > 30 | > 30 | > 30 | > 30 | > 30 | > 30 | > 30 | > 30 | 220 | > 30 | > 30 | > 30 | > 30 | > 30 | > 30
Cc1ccccc1C(=O)Nc1ccc(C(=O)N2CCCC(N(C)C)c3ccccc32)cc1 (stereo not given) [MOZAVAPTAN] | > 30 | > 30 | > 30 | > 30 | > 30 | > 30 | > 30 | > 30 | 2.48 | 14 | > 30 | > 30 | > 30 | > 30 | > 30 | > 30
CCOC(=O)C1=C[C@@H](OC(CC)CC)[C@H](NC(C)=O)[C@@H](N)C1 [OSELTAMIVIR] | > 30 | > 30 | > 30 | > 30 | > 30 | > 30 | > 30 | > 30 | > 30 | > 300 | > 30 | > 30 | > 30 | > 30 | > 30 | > 30
C[N+](C)(C)C[C@H](O)CC(=O)[O-] [LEVOCARNITINE] | > 30 | > 30 | > 30 | > 30 | > 30 | > 30 | > 30 | > 30 | > 30 | > 300 | > 30 | > 30 | > 30 | > 30 | > 30 | > 30
CC(C)(O)CNc1nc(Nc2ccnc(C(F)(F)F)c2)nc(-c2cccc(C(F)(F)F)n2)n1 [ENASIDENIB] | > 30 | 9.18 | 7.09 | 14.1 | > 30 | > 30 | > 30 | > 30 | 21.5 | 5.3 | > 30 | > 30 | > 30 | > 30 | > 30 | > 30
O=C(O)c1cc(/N=N/c2ccc(O)c(C(=O)O)c2)ccc1O [OLSALAZINE] | > 30 | > 30 | > 30 | > 30 | > 30 | > 30 | 13.2 | > 30 | > 30 | > 300 | > 30 | > 30 | > 30 | > 30 | > 30 | > 30
O=C(O)COc1ccc(C(=O)c2cccs2)c(Cl)c1Cl | > 30 | > 30 | > 30 | > 30 | > 30 | > 30 | > 30 | > 30 | > 30 | > 300 | > 30 | > 30 | > 30 | > 30 | > 30 | > 30
CCCN(CCC)C(=O)Cc1c(-c2ccc(Cl)cc2)nc2ccc(Cl)cn12 [ALPIDEM] | 27.8 | > 30 | > 10 | > 30 | > 30 | > 30 | > 30 | > 30 | 15.5 | 4.8 | > 30 | 14.8 | > 30 | > 30 | > 30 | > 30
CCCC(CCC)C(=O)O [VALPROIC ACID] | > 30 | > 30 | > 30 | > 30 | > 30 | > 30 | > 30 | > 30 | > 30 | > 300 | > 30 |  | > 30 | > 30 | > 30 | > 30
OC[C@H]1O[C@@H](c2ccc(Cl)c(Cc3ccc(O[C@H]4CCOC4)cc3)c2)[C@H](O)[C@@H](O)[C@@H]1O [EMPAGLIFLOZIN] | > 30 | > 30 | > 30 | > 30 | > 30 | > 30 | > 30 | > 30 | > 30 | > 300 | > 30 | > 30 | > 30 | > 30 | > 30 | > 30
CC(C)C[C@H](NC(=O)CNC(=O)c1cc(Cl)ccc1Cl)B(O)O [IXAZOMIB] | > 30 | > 30 | > 30 | > 30 | > 30 | > 30 | 29.9 | > 30 | > 30 | > 300 | > 30 | > 30 | > 30 | > 30 | > 30 | > 30
